± gives the standard deviation of the averaged measurements.
How the values were obtained:
Test in all cases: level (log10 ratio to DMSO vehicle control); higher = higher biomarker level / cell amount than vehicle control
Settings in all cases: in DMSO
[1] = compound: O=C(O)C(F)(F)C(F)(F)C(F)(F)C(F)(F)C(F)(F)C(F)(F)C(F)(F)C(F)F [9-H-Perfluorononanoic acid]
Method: (§1)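 BioMAP Diversity Plus panel of 12 human primary cell co-culture systems (3C, 4H, LPS, SAg, BT, BF4T, BE3C, CASM3C, HDF3CGF, KF3CT, MyoF, Mphg). Compounds were added 1 h before stimulation and left for 24 h (MyoF 48 h; BT 72 h for soluble read-outs or 6 d for IgG). Biomarkers were read by ELISA, cytotoxicity by SRB, PBMC viability and proliferation by Alamar Blue. Each well value was divided by the mean of 8 DMSO control wells on the same plate and log10 transformed; duplicate blinded samples were tested at 4 concentrations.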

[2] = compound: C=C(C)C(=O)OCCC(F)(F)C(F)(F)C(F)(F)C(F)(F)C(F)(C(F)(F)F)C(F)(F)F [(Perfluoro-5-methylhexyl)ethyl 2-methylprop-2-enoate]
Method: as §1

[3] = compound: O=C(O)C(F)(F)C(F)(F)C(F)F [4H-Perfluorobutanoic acid]
Method: as §1

Perfluoroheptanoic acid = compound: O=C(O)C(F)(F)C(F)(F)C(F)(F)C(F)(F)C(F)(F)C(F)(F)F [Perfluoroheptanoic acid]
Method: as §1

Heptafluorobutyramide = compound: NC(=O)C(F)(F)C(F)(F)C(F)(F)F [Heptafluorobutyramide]
Method: as §1

Pentafluoropropionamide = compound: NC(=O)C(F)(F)C(F)(F)F [Pentafluoropropionamide]
Method: as §1

Perfluoropentanoic acid = compound: O=C(O)C(F)(F)C(F)(F)C(F)(F)C(F)(F)F [Perfluoropentanoic acid]
Method: as §1

| Test System | level (log10) ([1]; 6700 nM) | level (log10) ([1]; 20000 nM) | level (log10) ([1]; 60000 nM) | level (log10) ([2]; 6700 nM) | level (log10) ([2]; 20000 nM) | level (log10) ([3]; 6700 nM) | level (log10) ([3]; 20000 nM) | level (log10) ([3]; 60000 nM) | level (log10) (Perfluoroheptanoic acid; 6700 nM) | level (log10) (Perfluoroheptanoic acid; 20000 nM) | level (log10) (Perfluoroheptanoic acid; 60000 nM) | level (log10) (Heptafluorobutyramide; 6700 nM) | level (log10) (Heptafluorobutyramide; 20000 nM) | level (log10) (Heptafluorobutyramide; 60000 nM) | level (log10) (Pentafluoropropionamide; 6700 nM) | level (log10) (Pentafluoropropionamide; 20000 nM) | level (log10) (Pentafluoropropionamide; 60000 nM) | level (log10) (Perfluoropentanoic acid; 6700 nM) | level (log10) (Perfluoropentanoic acid; 20000 nM) | level (log10) (Perfluoropentanoic acid; 60000 nM) |
| --- | --- | --- | --- | --- | --- | --- | --- | --- | --- | --- | --- | --- | --- | --- | --- | --- | --- | --- | --- | --- |
| lMphg:CCL3/MIP-1alpha | -0.005 | -0.0065 ± 0.0021 | 0.0195 ± 0.036 | -0.008 ± 0.034 | -0.0125 ± 0.044 | -0.0075 ± 0.037 | 0.004 ± 0.016 | 0.0235 ± 0.011 | -0.0265 ± 0.013 | -0.0075 ± 0.0078 | 0.018 ± 0.017 | -0.0235 ± 0.039 | -0.035 ± 0.024 | -0.0015 ± 0.00071 | -0.011 ± 0.011 | -0.0175 ± 0.0064 | 0.017 ± 0.045 | 0.008 ± 0.059 | -0.006 ± 0.055 | 0.006 ± 0.055 |
| lMphg:CD40 | 0.014 ± 0.011 | 0.003 ± 0.017 | -0.01 ± 0.024 | 0.0035 ± 0.011 | -0.0085 ± 0.0078 | 0.0065 ± 0.028 | -0.0035 ± 0.039 | 0.007 ± 0.024 | -0.0045 ± 0.018 | -0.0265 ± 0.012 | -0.028 ± 0.027 | -0.021 ± 0.011 | -0.0185 ± 0.037 | -0.0025 ± 0.025 | -0.0235 ± 0.022 | -0.017 ± 0.011 | -0.0115 ± 0.013 | 0.0225 ± 0.0092 | -0.0085 ± 0.0064 | 0.0175 ± 0.0078 |
| lMphg:CD62E/E-Selectin | -0.005 ± 0.037 | 0.0085 ± 0.035 | 0.0585 ± 0.021 | -0.0135 ± 0.011 | -0.01 ± 0.017 | -0.012 ± 0.0028 | 0.0025 ± 0.0092 | 0.0145 ± 0.0064 | -0.026 ± 0.0028 | 0 ± 0.024 | 0.025 ± 0.018 | 0.035 ± 0.051 | -0.009 ± 0.064 | -0.0285 ± 0.054 | -0.018 ± 0.0014 | 0.016 ± 0.014 | -0.013 ± 0.0071 | 0.012 ± 0.0057 | -0.008 ± 0.014 | 0.003 ± 0.042 |
| lMphg:CD69 | -0.0445 ± 0.088 | -0.038 ± 0.054 | -0.072 ± 0.0099 | -0.064 ± 0.082 | -0.0825 ± 0.08 | 0.0185 ± 0.032 | -0.0175 ± 0.0021 | 0.0095 ± 0.019 | -0.019 ± 0.038 | -0.021 ± 0.041 | -0.0205 ± 0.064 | -0.0155 ± 0.022 | -0.0145 ± 0.044 | 0.0115 ± 0.066 | -0.021 ± 0.0071 | -0.036 | 0.0125 ± 0.077 | -0.0315 ± 0.0092 | -0.0525 ± 0.013 | 0.0175 ± 0.077 |
| lMphg:CD106/VCAM-1 | -0.008 ± 0.018 | 0.0185 ± 0.00071 | 0.0075 ± 0.023 | -0.0315 ± 0.011 | -0.014 ± 0.0057 | 0.003 ± 0.0028 | 0.0125 ± 0.016 | 0.003 ± 0.014 | -0.0115 ± 0.005 | 0.001 ± 0.0014 | -0.0095 ± 0.032 | 0.011 ± 0.014 | 0.004 ± 0.0071 | 0.013 ± 0.0028 | 0.0015 ± 0.033 | -0.009 ± 0.021 | -0.0045 ± 0.043 | 0.005 ± 0.02 | 0.0125 ± 0.018 | 0.016 ± 0.0057 |
| lMphg:CXCL8/IL-8 | 0.033 ± 0.021 | 0.0415 ± 0.019 | 0.112 ± 0.0014 | -0.0035 ± 0.011 | 0.006 ± 0.0028 | 0.024 ± 0.0028 | 0.0145 ± 0.0021 | 0.0315 ± 0.011 | -0.0125 ± 0.0035 | 0.032 ± 0.0042 | 0.18 ± 0.035 | 0.0095 ± 0.035 | -0.0195 ± 0.0064 | 0.032 ± 0.038 | 0.007 ± 0.0071 | 0.001 ± 0.04 | -0.004 ± 0.013 | 0.005 ± 0.031 | -0.0275 ± 0.013 | 0.044 ± 0.064 |
| lMphg:IL-1alpha | -0.002 ± 0.017 | 0.0105 ± 0.0092 | 0.042 ± 0.057 | 0.016 ± 0.018 | 0.0385 ± 0.026 | -0.0055 ± 0.0064 | -0.0355 ± 0.0064 | 0.017 ± 0.035 | -0.0275 ± 0.042 | -0.0025 ± 0.0035 | 0.0145 ± 0.012 | -0.034 ± 0.021 | -0.0015 ± 0.018 | 0.0475 ± 0.053 | -0.0005 ± 0.016 | -0.0055 ± 0.0092 | 0.0355 ± 0.083 | -0.0095 ± 0.022 | -0.0195 ± 0.046 | 0.01 ± 0.05 |

— the supplement of paper PMC10331698
